# Measurements from patent US11873303B2, “Substituted pyrazoles as type II IRAK inhibitors” (Merck Patent GmbH, priority 2018, dated 2024).
# What was measured:
# [1] = target: T1, IRAK1 (human purified recombinant enzyme His-TEV-IRAK1 (194-712)) (Homo sapiens, UniProt P51617); test: IRAK1 enzymatic assay (ADP-Glo luminescence); format: biochemical; details: human recombinant IRAK1, ATP 1 μM
# T1 construct: His-TEV-IRAK1 (194-712); His (N); TEV cleavage site (N)
# Protocol: IRAK1 is a human purified recombinant enzyme (His-TEV-IRAK1 (194-712)). In this assay, IRAK1 hydrolysed ATP and autophosphorylated. Measurement of IRAK-1 inhibition was performed in 384-well format based on luminescence assay (ADP-Glo™ Kinase Assay from Promega). Purified human recombinant IRAK1 (0.3 μg/ml) and serial diluted compounds in DMSO (range of concentration from 10 μM to 0.5 nM) or controls (1% DMSO) were incubated for 15 minutes at RT in assay buffer containing 50 mM Hepes pH 7.0, Fatty acid-free BSA 0.1%, Dithiothreitol (DTT) 2 mM, MgCl2 10 mM, EGTA 0.5 mM, Triton X-100 0.01%. The kinase reaction was then initiated by the addition of ATP at a concentration of 1 μM. After 2 hours of incubation at RT, the reaction was stopped and the unconsumed ATP depleted by the addition of ADP-Glo™ Reagent according to supplier instructions. After 40 minutes of incubation at RT, the Kinase Detection Reagent was then added to the assay plate according to supplier instructions. After 20 minutes of incubation at RT, the luminescence signal was measured with a luminometer (PerkinElmer Envision or equivalent reader).
# [2] = target: T2, IRAK4 (human purified recombinant enzyme His-TEV-IRAK4 (1-460)) (Homo sapiens, UniProt Q9NWZ3); test: IRAK4 enzymatic assay (ADP-Glo luminescence); format: biochemical; details: human recombinant IRAK4, ATP 2 μM, STK1-biotin peptide
# T2 construct: His-TEV-IRAK4 (1-460); His (N); TEV cleavage site (N)
# T2 sequence (Q9NWZ3 1-460): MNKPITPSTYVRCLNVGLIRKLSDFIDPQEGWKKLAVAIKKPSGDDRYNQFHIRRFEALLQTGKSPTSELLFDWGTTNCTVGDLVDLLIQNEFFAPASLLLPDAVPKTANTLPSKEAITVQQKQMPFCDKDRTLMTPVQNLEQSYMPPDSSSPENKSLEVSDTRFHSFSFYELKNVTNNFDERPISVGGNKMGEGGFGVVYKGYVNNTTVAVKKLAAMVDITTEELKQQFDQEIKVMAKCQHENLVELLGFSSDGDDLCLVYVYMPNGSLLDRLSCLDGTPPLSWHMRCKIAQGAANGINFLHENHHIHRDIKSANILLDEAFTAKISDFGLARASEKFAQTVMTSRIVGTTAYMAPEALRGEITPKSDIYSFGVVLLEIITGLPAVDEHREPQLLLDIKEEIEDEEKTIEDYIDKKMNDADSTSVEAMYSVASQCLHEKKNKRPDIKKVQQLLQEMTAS
# Protocol: IRAK4 is a human purified recombinant enzyme (His-TEV-IRAK4 (1-460)). In this assay, IRAK4 hydrolysed ATP, autophosphorylated and phosphorylated a Serine/Threonine generic peptidic substrate (STK: 61ST1BLC from CisBio International). Measurement of IRAK-4 inhibition was performed in 384-well format based on a luminescence assay (ADP-Glo™ Kinase Assay from Promega). Purified human recombinant IRAK4 (0.3 μg/ml) and serial diluted compounds in DMSO (range of concentration from 10 μM to 0.5 nM) or controls (1% DMSO) were incubated for 15 minutes at RT in assay buffer containing 50 mM Hepes pH 7.0, Fatty acid-free BSA 0.1%, Dithiothreitol (DTT) 2 mM, MgCl2 10 mM, EGTA 0.5 mM, Triton X-100 0.01%, MnCl2 5 mM. The kinase reaction was then initiated by the addition of ATP (2 μM) and the peptidic substrate STK1-biotin peptide (300 nM). After 2 hours of incubation at RT, the reaction was stopped and the unconsumed ATP depleted by the addition of ADP-Glo™ Reagent according to supplier instructions. After 40 minutes of incubation at RT, the Kinase Detection Reagent was then added to the assay plate according to supplier instructions. After 20 minutes of incubation at RT, the luminescence signal was measured with a plate-reading luminometer (PerkinElmer Envision or equivalent reader).
# [3] = tested on: TLR7 induced IL-6 secretion in human mononuclear cells (PBMC's); test: TLR7 induced IL-6 in human PBMC's; format: cell-based; details: TLR7 ligand 2 uM overnight, IL-6 AlphaLISA
# Protocol: TLR7 Induced IL-6 in Human PBMC's
# Human PBMC assay was used as one of the functional assays to monitor the activity of IRAK1 and IRAK4 small molecule inhibitors on TLR7 induced IL-6 secretion in human mononuclear cells (PBMC's). Human PBMCs were prepared from buffy coats (whole blood enriched with leukocytes and platelets) obtained from healthy volunteers used either fresh or frozen were plated in assay media (RPMI+2% P/S/L-glu+10% HI-FBS) and pre-treated with compounds in DMSO/media (range of concentrations from 25 uM to 0.4 nM) or controls (0.25% DMSO) for 30 minutes at 37° C. in assay media. Following pre-treatment with IRAK1 and IRAK4 inhibitors, PBMC's were stimulated with TLR7 specific ligand (2 uM) overnight (16-18 hrs) at 37° C. After incubation supernatant was transferred to 384 well PE AlphaPlate-384 and IL-6 was quantified using Perkin Elmer IL-6 Alpha LISA kit (AL223C). Plates were read on an Envision® plate reader with Alpha Technology®.
# T1 sequence (P51617 194-712): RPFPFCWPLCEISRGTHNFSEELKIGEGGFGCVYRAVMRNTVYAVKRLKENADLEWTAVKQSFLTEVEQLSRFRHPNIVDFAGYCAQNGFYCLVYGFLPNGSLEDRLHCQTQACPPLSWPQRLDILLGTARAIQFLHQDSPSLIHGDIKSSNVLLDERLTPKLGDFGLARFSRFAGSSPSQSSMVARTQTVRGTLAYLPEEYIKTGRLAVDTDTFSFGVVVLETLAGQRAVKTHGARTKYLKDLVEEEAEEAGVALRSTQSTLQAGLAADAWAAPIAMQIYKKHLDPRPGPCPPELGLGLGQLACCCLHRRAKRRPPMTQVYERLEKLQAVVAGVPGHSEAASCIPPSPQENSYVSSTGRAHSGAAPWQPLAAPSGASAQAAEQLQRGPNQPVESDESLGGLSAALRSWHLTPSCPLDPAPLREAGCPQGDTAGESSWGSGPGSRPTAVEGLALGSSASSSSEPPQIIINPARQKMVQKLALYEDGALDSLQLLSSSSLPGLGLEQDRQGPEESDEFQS
Structure (SMILES),IC50 [1] [nM],IC50 [2] [nM],melting point [°C],IC50 [3] [nM]
"CC(C)c1ccc(-n2nc(C(C)(C)C)cc2NC(=O)Cc2ccc(-c3nn(C)c4ncnc(N)c34)cc2)cc1 [Example 15, 2-[4-(4-Amino-1-methyl-1H-pyrazolo[3,4-d]pyrimidin-3-yl)-phenyl]-N-[5-tert-butyl-2-(4-isopropyl-phenyl)-2H-pyrazol-3-yl]-acetamide]",< 100,1000 to 5000,–,1000 to 5000
"CC(C)c1ccc(-n2nc(C(C)(C)C)cc2NC(=O)Cc2ccc(-c3nn(C)c4ncnc(N)c34)cc2F)cc1 [Example 16, 2-[4-(4-Amino-1-methyl-1H-pyrazolo[3,4-d]pyrimidin-3-yl)-2-fluoro-phenyl]-N-[5-tert-butyl-2-(4-isopropyl-phenyl)-2H-pyrazol-3-yl]-acetamide]",< 100,100 to 1000,–,1000 to 5000
"Cc1ccc(-n2nc(C(C)(C)CO)cc2NC(=O)Nc2ccc(-c3nn(C)c4ncnc(N)c34)cc2Cl)cc1 [Example 17, 1-(4-{4-amino-1-methyl-1H-pyrazolo[3,4-d]pyrimidin-3-yl}-2-chlorophenyl)-3-[3-(1-hydroxy-2-methylpropan-2-yl)-1-(4-methylphenyl)-1H-pyrazol-5-yl]urea]",< 100,1000 to 5000,192 to 194,< 100
"Cc1ccc(-n2nc(C(C)(C)C)cc2NC(=O)C(O)c2ccc(-c3nn(C)c4ncnc(N)c34)cc2)cc1 (centres unmarked) [Example 19, 2-[4-(4-Amino-1-methyl-1H-pyrazolo[3,4-d]pyrimidin-3-yl)-phenyl]-N-(5-tert-butyl-2-p-tolyl-2H-pyrazol-3-yl)-2-hydroxy-acetamide]",< 100,100 to 1000,–,100 to 1000
"Cc1ccc(-n2nc(C(C)(C)C#N)cc2NC(=O)Nc2ccc(-c3csc4ncnc(N)c34)cc2Cl)cc1 [Example 22, 1-[4-(4-Amino-thieno[2,3-d]pyrimidin-5-yl)-2-chloro-phenyl]-3-[5-(cyano-dimethyl-methyl)-2-p-tolyl-2H-pyrazol-3-yl]-urea]",100 to 1000,1000 to 5000,–,> 5000
"Cc1ccc(-n2nc(C(C)(C)C)cc2NC(=O)Nc2ccc(-c3nn(C)c4ccnc(N)c34)cc2F)cc1 [Example 26, 1-[4-(4-Amino-1-methyl-1H-pyrazolo[4,3-c]pyridin-3-yl)-2-fluoro-phenyl]-3-(5-tert-butyl-2-p-tolyl-2H-pyrazol-3-yl)-urea]",< 100,100 to 1000,–,< 100

# More lines, main results first:
IC50 [1] [nM],IC50 [2] [nM],melting point [°C],Structure (SMILES),IC50 [3] [nM]
< 100,1000 to 5000,170 to 172,"Cc1ccc(-n2nc(C3(C)COC3)cc2NC(=O)Nc2ccc(-c3nn(C)c4ncnc(N)c34)cc2Cl)cc1 [Example 18, 1-(4-{4-amino-1-methyl-1H-pyrazolo[3,4-d]pyrimidin-3-yl}-2-chlorophenyl)-3-[3-(3-methyloxetan-3-yl)-1-(4-methylphenyl)-1H-pyrazol-5-yl]urea]",100 to 1000
< 100,< 100,–,"Cc1ccc(-n2nc(C(C)(C)C)cc2NC(=O)C(=O)c2ccc(-c3nn(C)c4ncnc(N)c34)cc2)cc1 [Example 20, 2-[4-(4-Amino-1-methyl-1H-pyrazolo[3,4-d]pyrimidin-3-yl)-phenyl]-N-(5-tert-butyl-2-p-tolyl-2H-pyrazol-3-yl)-2-oxo-acetamide]",1000 to 5000
100 to 1000,> 5000,–,"Cc1ccc(-n2nc(C(C)(C)CO)cc2NC(=O)Nc2ccc(-c3csc4ncnc(N)c34)cc2Cl)cc1 [Example 21, 1-(4-{4-aminothieno[2,3-d]pyrimidin-5-yl}-2-chlorophenyl)-3-[3-(1-hydroxy-2-methylpropan-2-yl)-1-(4-methylphenyl)-1H-pyrazol-5-yl]urea]",> 5000
< 100,1000 to 5000,–,"Cc1ccc(-n2nc(C(C)(C)C)cc2NC(=O)Nc2ccc(-c3csc4ncnc(N)c34)c(F)c2Cl)cc1 [Example 23, 1-[4-(4-Amino-thieno[2,3-d]pyrimidin-5-yl)-2-chloro-3-fluoro-phenyl]-3-(5-tert-butyl-2-p-tolyl-2H-pyrazol-3-yl)-urea]",< 100
< 100,100 to 1000,–,"Cc1ccc(-n2nc(C(C)(C)C(F)(F)F)cc2NC(=O)Nc2ccc(-c3csc4ncnc(N)c34)cc2Cl)cc1 [Example 24, 1-[4-(4-Amino-thieno[2,3-d]pyrimidin-5-yl)-2-chloro-phenyl]-3-[2-p-tolyl-5-(2,2,2-trifluoro-1,1-dimethyl-ethyl)-2H-pyrazol-3-yl]-urea]",< 100
100 to 1000,1000 to 5000,228 to 230,"Cc1ccc(-n2nc(C(C)(C)C)cc2NC(=O)N[C@H]2CC[C@@H](c3cn(C)c4ncnc(N)c43)CC2)cc1 [Example 27, 3-[3-tert-butyl-1-(4-methylphenyl)-1H-pyrazol-5-yl]-1-[(1s,4s)-4-{4-amino-7-methyl-7H-pyrrolo[2,3-d]pyrimidin-5-yl}cyclohexyl]urea]",–
